Source: patent US9141756B1, “Multi-scale complex systems transdisciplinary analysis of response to therapy” (University of Southern California, priority 2010, dated 2015)
Read-outs that look alike come from different tables or passages of the source.

Key:
[1] = test system: Eμ-myc lymphomas; conditions: cited from earlier work
[2] = test system: A431-sensitive cancer cell line; assay: SILAC proteomic profiling of response to gefitinib

Structure (SMILES) | Phenotype: response to CTX ([1]; Eμ-Myc genotype) | Phenotype: response to CTX ([1]; Eμ-Myc/Arf −/− genotype (lymphoma lacking ARF)) | Phenotype: response to CTX ([1]; Eμ-Myc/Bcl2 genotype) | Phenotype: response to CTX ([1]; Eμ-Myc/p53 −/− genotype (lymphoma lacking p53)) | proteins showing a statistically significant change in abundance following treatment ([2]; A431 cells, SILAC) | potential cell-surface biomarkers showing changes in abundance in response to therapy ([2]; both in vitro and in vivo (xenograft)) | additional proteins showing changes in the secretome and serum ([2]; secretome and serum)
O=P1(N(CCCl)CCCl)NCCCO1 (stereo not shown) [CTX, cyclophosphamide] | variable response to CTX | slightly resistant to CTX | medium resistant to CTX | highly resistant to CTX |  |  | 
COc1cc2ncnc(Nc3ccc(F)c(Cl)c3)c2cc1OCCCN1CCOCC1 [geftinib, gefitinib] |  |  |  |  | 400 | Ten | seven
